# How the values were obtained:
# [1] = Lipid peroxidation of liposomes using H2O2+FeCl2; type: biochemical; settings: for Variation of peroxydation: vs negative control
# Procedure: (§1) In order to determine the action of teprenone as per the invention, the effect of the active substance on the lipid peroxidation of liposomes was analyzed. The liposomes were used to model cutaneous lipids.
# In this method, liposomes are exposed to the test compound and a Fenton oxidative system. The peroxidation is determined by spectrophotometry. Trolox, a known anti-free radical agent, is used as the positive control at the same molar concentration as a teprenone.
# [2] = Lipid peroxidation of liposomes using UVA radiation; type: biochemical; settings: UVA induced, vs negative control
# Procedure: as §1
# In this method, liposomes are exposed to the test compound and then to UV A radiation. Peroxidation is determined by spectrophotometry at 233 nm.
# Hsp70 = Hsp70 immunolabeling in UVB-irradiated human skin explants; type: cell-based; settings: for Number of Hsp70 positive cells/cm: UVB 2 J/cm2, n = 3
# Text: (§2) Heat Schock proteins (Hsp) are cellular protective molecules which contribute to the correct proteinic folding, thus preserving the protein activity. Hsp 27 is a protective chaperone protein very present in the keratinocytes at the basal state. In situation of UV stress, cell increases its rate of protection and Hsp 27 is strongly overexpressed. Hsp70 is a chaperone protein less expressed in a basal state but induced in response to the UV, thermics, mechanics or infectious stress.
# (§3) Human skin explants are treated in a similar way to the previous experiment (protection on the catalase activity): taken from a plastic surgery, they are cultivated for 48 h in the presence or not, for control, of teprenone (or trolox) at various concentrations, then irradiated or not using a source UVB (2 J/cm2). After irradiation skin explants were post-treated (24 h) or not with teprenone (or trolox) at the same concentrations.
# (§4) Explants were embedded in OCT, sectioned using a freezing microtome, and slide mounted. The mounted specimens were immunolabeled with anti-human Hsp antibody.
# Hsp27 = Hsp27 immunolabeling in UVB-irradiated human skin explants; type: cell-based; settings: for Number of Hsp27 positive cells/cm: UVB 2 J/cm2, n = 3
# Text: as §2, §3, §4
# [3] = tested on: sunburn cells (SBC) in human skin explants; assay: Sunburn cells (SBC) in human skin explants after UVB; type: cell-based; settings: for % SBC (Sun Burn Cells): after UVB 2 J/cm^2
# Procedure: With a view to determining the action of teprenone as per the invention, the effect of the active substance on the presence of sunburn cells (SBC) and apoptotic cell in human skin explants was investigated.
# Human skin explants are treated in a way similar to the preceding experiment of description of the protective role of the teprenone on the catalase activity (obtained from a patient having undergone plastic surgery, cultured with or without teprenone for 48 hours then exposed to UV B radiation (2 J/cm^2). After irradiation, the explants were again cultured in fresh medium with or without teprenone for 24 hours).
# SBC were evidenced on paraffin-wax-embedded skin explant sections by staining with […]. SBC, apoptotic keratinocytes with pyknotic nuclei and eosinophilic cytoplasm, are characteristic of mammalian epidermis exposed to UV B radiation.
# VEGF = VEGF in supernatant of γ-irradiated NHEK cells (ELISA); type: cell-based, human; settings: for decrease of VEGF: vs irradiated control; for expression VEGF: γ-irradiation 5 Gγ, 4 days
# Procedure: In order to determine the action of teprenone as per the invention, the effect of GGA on the IL8 and VEGF expression was investigated in the supernatants of irradiated (with 5 Gy) NHEK cells. After γ-irradiation, NHEK cells are treated during 4 days with or without GGA at differents concentrations. The amount of IL8 and VEGF present in the cells supernatant is determined with ELISA method.
compound,measurement,setting,value
"CC(=O)CCC=C(C)CCC=C(C)CCC=C(C)CCC=C(C)C [Teprenone, 6,10,14,18-tetramethyl-5,9,13-nonadecatetren-2-one]",Variation of peroxydation,[1]; concentration 3 · 10^−2%,−75%
same,Variation of peroxydation,[1]; concentration 3 · 10^−3%,−26%
same,Variation of peroxydation,[1]; concentration 3 · 10^−4%,−16%
same,decrease in peroxidation,[1]; concentration 3.10^−2%,75%
same,Variation of peroxydation,[1]; concentration 10^−2%,−39%
same,Variation of peroxydation,[1]; concentration 10^−3%,−20%
same,Variation of peroxydation,[2]; concentration 3 · 10^−2%,−77%
same,Variation of peroxydation,[2]; concentration 3 · 10^−3%,−10%
same,Variation of peroxydation,[2]; concentration 3 · 10^−4%,−22%
same,Variation of peroxydation,[2]; concentration 10^−2%,−52%
same,Variation of peroxydation,[2]; concentration 10^−3%,−12%
same,Hsp70: Protection vs. irradiated (%),Hsp70; 0.05 mM,66%
same,Hsp70: Protection vs. irradiated (%),Hsp70; 0.1 mM,100%
same,Hsp70: Protection vs. irradiated (%),"Hsp70; 0.1 mM, listed as GGA",100%
same,Number of Hsp70 positive cells/cm,Hsp70; 0.05 mM,130 cells/cm
same,Number of Hsp70 positive cells/cm,Hsp70; 0.1 mM,40 cells/cm
same,Hsp27: Protection vs. irradiated (%),Hsp27; 0.05 mM,50%
same,Hsp27: Protection vs. irradiated (%),Hsp27; 0.1 mM,75%
same,Hsp27: Protection vs. irradiated (%),"Hsp27; 0.1 mM, listed as GGA",75%
same,Number of Hsp27 positive cells/cm,Hsp27; 0.05 mM,530 cells/cm
same,Number of Hsp27 positive cells/cm,Hsp27; 0.1 mM,400 cells/cm
same,% SBC (Sun Burn Cells),[3]; 0.05 mM,45%
same,% SBC (Sun Burn Cells),[3]; 0.1 mM,27%
same,diminution of SBC,"[3]; after UVB, vs irradiated",−66%
same,decrease of VEGF,VEGF; 1 · 10^−4%,−47%
same,decrease of VEGF,VEGF; 3 · 10^−5%,−30%
same,expression VEGF,VEGF; 1 · 10^−4%,3 pg/10⁵ cells
same,expression VEGF,VEGF; 3 · 10^−5%,3.5 pg/10⁵ cells

# Source: patent US20090214607A1, “Topical use of teprenone” (SEDERMA, priority 2005, published 2009)
